Test results published in ChEMBL document CHEMBL1201862, “PubChem BioAssay data set” (2004).
Several values for one entry are separate records, joined by “and”; a condition that tells them apart may be missing. Equal entries are not always repeated. Activity calls are given as the source filed them.

Assays:
[1] = blockers of HIV-1 envelope-mediated cell-cell fusion – cherry-pick, dose response (AID 652057); format: functional, cell-based
[2] = HIV-1 AD8 envelope cell-cell fusion blockers – cherry-pick, dose response (AID 652062); format: functional, cell-based;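 note: luciferase signal from cell-cell fusion driven by HIV-1 clade B AD8 Env; potency is for inhibitors of fusion seen as a drop in luminescence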
[3] = blockers of HIV-1 ZM109 envelope-driven cell-cell fusion – HeLa effector, CEM target cells, luciferase, cherry-pick, dose response (AID 652058); format: functional, cell-based;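 note: luciferase signal from HIV-1 Env mediated cell-cell fusion of effector and target cells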
[4] = biological target: FAD-linked sulfhydryl oxidase ALR (Homo sapiens, UniProt P55789); test: ALR-catalysed DTT oxidation blockers – biochemical, H2O2 detection, luminescence, cherry-pick, dose response (AID 493248)
Cytochrome P450 2C19 = Cytochrome P450 2C19 (Homo sapiens, UniProt P33261); test: Cytochrome panel assay with activity outcomes. Panel member name: p450-cyp2c19 Compounds with AC50 equal or less than 10 uM are considered active; format: functional; conditions: read-out: AC50
Cytochrome P450 2C9 = Cytochrome P450 2C9 (Homo sapiens, UniProt P11712)
Cytochrome P450 2D6 = Cytochrome P450 2D6 (Homo sapiens, UniProt P10635);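 note: CYP2D6 member of a cytochrome P450 panel assay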
Cytochrome P450 1A2 = biological target: T1, Cytochrome P450 1A2 (Homo sapiens, UniProt P05177);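 note: PubChem cytochrome P450 panel assay, CYP1A2 panel member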
T1 sequence (P05177 whole entry): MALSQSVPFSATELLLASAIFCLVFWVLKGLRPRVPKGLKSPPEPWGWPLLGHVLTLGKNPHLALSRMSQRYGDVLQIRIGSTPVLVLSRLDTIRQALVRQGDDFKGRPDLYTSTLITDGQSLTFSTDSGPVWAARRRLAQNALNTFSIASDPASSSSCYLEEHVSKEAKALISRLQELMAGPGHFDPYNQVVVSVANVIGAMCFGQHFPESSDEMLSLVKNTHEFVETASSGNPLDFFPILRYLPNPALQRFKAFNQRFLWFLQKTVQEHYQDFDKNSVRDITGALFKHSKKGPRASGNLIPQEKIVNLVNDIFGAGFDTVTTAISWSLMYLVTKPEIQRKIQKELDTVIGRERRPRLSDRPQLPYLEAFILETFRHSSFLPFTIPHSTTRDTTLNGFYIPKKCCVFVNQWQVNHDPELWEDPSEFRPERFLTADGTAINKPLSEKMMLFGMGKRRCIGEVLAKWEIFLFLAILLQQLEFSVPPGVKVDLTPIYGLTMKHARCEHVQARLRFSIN

[5] = off-target signal loss in HeLa-CEM21 co-culture – HeLa F-luc CTL cells, cherry-picked, counter-screen for HIV-1 Env fusion inhibitor project, dose response (AID 652040); format: functional, cell-based;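 note: potency for signal decrease marking cytotoxic or nonspecific inhibition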
Streptococcus = test: GAS UMAA2166 growth inhibition – luminescence, BacTiterGlo, counter-screen for streptokinase expression inhibitor project, dose response (AID 1915); format: functional, organism-based;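 note: potency for reduction of bacterial viability or growth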
[6] = biological target: Induced myeloid leukemia cell differentiation protein Mcl-1 (Homo sapiens, UniProt Q07820); format: functional
[7] = test system: Streptococcus sp. 'group A'; test: Streptococcus pyogenes SK(-)GAS viability under kanamycin – luminescence, BacTiterGlo, confirmation, counter-screen for streptokinase expression inhibitor project, dose response (AID 1900); format: functional, organism-based
Streptokinase A = biological target: T2, Streptokinase A (Streptococcus pyogenes serotype M1, UniProt P10520); test: viability-normalized secreted streptokinase activity reduction – plasminogen activation absorbance, OD405, dose response (AID 1914); format: functional, Streptococcus pyogenes M1 GAS;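 note: secreted streptokinase activity via plasminogen activation per viability signal from cell pellet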
T2 sequence (P10520 whole entry): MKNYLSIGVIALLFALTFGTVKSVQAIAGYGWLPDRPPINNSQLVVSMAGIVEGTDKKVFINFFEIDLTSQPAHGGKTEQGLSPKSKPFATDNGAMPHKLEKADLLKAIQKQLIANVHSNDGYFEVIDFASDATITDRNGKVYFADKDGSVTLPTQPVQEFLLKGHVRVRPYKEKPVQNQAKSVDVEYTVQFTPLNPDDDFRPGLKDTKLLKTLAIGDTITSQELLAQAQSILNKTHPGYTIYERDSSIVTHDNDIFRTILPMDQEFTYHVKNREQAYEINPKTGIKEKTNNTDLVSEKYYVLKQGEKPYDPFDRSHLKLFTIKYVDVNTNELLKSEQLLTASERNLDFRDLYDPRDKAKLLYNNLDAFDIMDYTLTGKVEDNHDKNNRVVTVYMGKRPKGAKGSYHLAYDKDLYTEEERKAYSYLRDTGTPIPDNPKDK

[8] = reduction of Shn3 3'UTR-driven luciferase in osteoblasts – cell-based, Clone20 osteoblasts, firefly luciferase, cherry-picked, dose response (AID 624132); format: functional;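 note: firefly luciferase luminescence from reporter carrying the Shn3 3'UTR in osteoblasts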
Vero = test: cells; format: functional; conditions: Chlorocebus sabaeus
Cytochrome P450 3A4 = Cytochrome P450 3A4 (Homo sapiens, UniProt P08684);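 note: CYP3A4 tested as one member of a cytochrome P450 panel screen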
H9c2 = test: cells; format: functional, cell-based; conditions: Rattus norvegicus, H9c2, Myocardium
[9] = Luminescence Cell-Based Dose Retest to Confirm Inhibitors of Cancer Stem Cells. [Related pubchem assays (depositor defined):AID2717, AID2721]; format: functional; conditions: Homo sapiens
[10] = biological target: T3, DNA repair protein RAD52 homolog (Homo sapiens, UniProt P43351); format: functional, biochemical
T3 sequence (P43351 whole entry): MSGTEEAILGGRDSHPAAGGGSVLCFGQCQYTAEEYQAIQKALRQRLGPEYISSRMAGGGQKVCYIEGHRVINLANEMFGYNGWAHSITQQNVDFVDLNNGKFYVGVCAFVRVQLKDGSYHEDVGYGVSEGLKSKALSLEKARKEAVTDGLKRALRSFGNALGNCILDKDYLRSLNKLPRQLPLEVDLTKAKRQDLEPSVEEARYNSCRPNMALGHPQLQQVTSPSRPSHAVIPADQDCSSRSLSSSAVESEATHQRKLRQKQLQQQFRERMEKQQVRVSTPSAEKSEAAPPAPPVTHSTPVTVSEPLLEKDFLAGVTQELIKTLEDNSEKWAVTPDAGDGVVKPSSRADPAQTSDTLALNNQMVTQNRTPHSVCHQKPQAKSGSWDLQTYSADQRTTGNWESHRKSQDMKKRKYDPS

[11] = biological target: T4, Heat shock factor protein 1 (Mus musculus, UniProt P38532); test: enhancement of HSF1-driven luciferase signal – cell-based, NIH3T3, luminescence, dose retest, confirmation (AID 435004); format: functional;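 note: stress induced by proteasome inhibitor MG132 added 30 min after compound; luciferase reporter driven by HSF1 response element in NIH3T3 cells; actives raise luminescence as potentiators of the MG132 stress response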
T4 sequence (P38532 whole entry): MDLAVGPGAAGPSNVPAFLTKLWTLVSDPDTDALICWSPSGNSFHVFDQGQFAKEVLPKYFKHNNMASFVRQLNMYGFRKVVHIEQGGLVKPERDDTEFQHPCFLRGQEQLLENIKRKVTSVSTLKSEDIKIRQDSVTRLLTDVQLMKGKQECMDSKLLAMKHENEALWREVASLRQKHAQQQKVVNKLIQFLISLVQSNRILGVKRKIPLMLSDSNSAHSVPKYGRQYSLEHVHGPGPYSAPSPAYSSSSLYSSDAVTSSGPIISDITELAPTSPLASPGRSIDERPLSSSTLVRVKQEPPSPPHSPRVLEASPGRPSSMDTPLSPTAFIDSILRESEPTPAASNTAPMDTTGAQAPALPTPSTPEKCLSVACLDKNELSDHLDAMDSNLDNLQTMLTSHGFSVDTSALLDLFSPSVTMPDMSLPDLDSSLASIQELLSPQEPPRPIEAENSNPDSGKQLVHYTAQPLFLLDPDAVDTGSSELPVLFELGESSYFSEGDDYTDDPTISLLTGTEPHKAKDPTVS

Fatty acid synthase = Fatty acid synthase (Homo sapiens, UniProt P49327); test: inhibition of human FAS-TE enzyme activity – biochemical, kinetic fluorescence intensity, dose response (AID 624326); format: functional;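 note: rate of fluorescence rise from hydrolysis of a fluorogenic O-methyl fluorescein ester substrate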
Fatty acid synthase, sequence (P49327 whole entry): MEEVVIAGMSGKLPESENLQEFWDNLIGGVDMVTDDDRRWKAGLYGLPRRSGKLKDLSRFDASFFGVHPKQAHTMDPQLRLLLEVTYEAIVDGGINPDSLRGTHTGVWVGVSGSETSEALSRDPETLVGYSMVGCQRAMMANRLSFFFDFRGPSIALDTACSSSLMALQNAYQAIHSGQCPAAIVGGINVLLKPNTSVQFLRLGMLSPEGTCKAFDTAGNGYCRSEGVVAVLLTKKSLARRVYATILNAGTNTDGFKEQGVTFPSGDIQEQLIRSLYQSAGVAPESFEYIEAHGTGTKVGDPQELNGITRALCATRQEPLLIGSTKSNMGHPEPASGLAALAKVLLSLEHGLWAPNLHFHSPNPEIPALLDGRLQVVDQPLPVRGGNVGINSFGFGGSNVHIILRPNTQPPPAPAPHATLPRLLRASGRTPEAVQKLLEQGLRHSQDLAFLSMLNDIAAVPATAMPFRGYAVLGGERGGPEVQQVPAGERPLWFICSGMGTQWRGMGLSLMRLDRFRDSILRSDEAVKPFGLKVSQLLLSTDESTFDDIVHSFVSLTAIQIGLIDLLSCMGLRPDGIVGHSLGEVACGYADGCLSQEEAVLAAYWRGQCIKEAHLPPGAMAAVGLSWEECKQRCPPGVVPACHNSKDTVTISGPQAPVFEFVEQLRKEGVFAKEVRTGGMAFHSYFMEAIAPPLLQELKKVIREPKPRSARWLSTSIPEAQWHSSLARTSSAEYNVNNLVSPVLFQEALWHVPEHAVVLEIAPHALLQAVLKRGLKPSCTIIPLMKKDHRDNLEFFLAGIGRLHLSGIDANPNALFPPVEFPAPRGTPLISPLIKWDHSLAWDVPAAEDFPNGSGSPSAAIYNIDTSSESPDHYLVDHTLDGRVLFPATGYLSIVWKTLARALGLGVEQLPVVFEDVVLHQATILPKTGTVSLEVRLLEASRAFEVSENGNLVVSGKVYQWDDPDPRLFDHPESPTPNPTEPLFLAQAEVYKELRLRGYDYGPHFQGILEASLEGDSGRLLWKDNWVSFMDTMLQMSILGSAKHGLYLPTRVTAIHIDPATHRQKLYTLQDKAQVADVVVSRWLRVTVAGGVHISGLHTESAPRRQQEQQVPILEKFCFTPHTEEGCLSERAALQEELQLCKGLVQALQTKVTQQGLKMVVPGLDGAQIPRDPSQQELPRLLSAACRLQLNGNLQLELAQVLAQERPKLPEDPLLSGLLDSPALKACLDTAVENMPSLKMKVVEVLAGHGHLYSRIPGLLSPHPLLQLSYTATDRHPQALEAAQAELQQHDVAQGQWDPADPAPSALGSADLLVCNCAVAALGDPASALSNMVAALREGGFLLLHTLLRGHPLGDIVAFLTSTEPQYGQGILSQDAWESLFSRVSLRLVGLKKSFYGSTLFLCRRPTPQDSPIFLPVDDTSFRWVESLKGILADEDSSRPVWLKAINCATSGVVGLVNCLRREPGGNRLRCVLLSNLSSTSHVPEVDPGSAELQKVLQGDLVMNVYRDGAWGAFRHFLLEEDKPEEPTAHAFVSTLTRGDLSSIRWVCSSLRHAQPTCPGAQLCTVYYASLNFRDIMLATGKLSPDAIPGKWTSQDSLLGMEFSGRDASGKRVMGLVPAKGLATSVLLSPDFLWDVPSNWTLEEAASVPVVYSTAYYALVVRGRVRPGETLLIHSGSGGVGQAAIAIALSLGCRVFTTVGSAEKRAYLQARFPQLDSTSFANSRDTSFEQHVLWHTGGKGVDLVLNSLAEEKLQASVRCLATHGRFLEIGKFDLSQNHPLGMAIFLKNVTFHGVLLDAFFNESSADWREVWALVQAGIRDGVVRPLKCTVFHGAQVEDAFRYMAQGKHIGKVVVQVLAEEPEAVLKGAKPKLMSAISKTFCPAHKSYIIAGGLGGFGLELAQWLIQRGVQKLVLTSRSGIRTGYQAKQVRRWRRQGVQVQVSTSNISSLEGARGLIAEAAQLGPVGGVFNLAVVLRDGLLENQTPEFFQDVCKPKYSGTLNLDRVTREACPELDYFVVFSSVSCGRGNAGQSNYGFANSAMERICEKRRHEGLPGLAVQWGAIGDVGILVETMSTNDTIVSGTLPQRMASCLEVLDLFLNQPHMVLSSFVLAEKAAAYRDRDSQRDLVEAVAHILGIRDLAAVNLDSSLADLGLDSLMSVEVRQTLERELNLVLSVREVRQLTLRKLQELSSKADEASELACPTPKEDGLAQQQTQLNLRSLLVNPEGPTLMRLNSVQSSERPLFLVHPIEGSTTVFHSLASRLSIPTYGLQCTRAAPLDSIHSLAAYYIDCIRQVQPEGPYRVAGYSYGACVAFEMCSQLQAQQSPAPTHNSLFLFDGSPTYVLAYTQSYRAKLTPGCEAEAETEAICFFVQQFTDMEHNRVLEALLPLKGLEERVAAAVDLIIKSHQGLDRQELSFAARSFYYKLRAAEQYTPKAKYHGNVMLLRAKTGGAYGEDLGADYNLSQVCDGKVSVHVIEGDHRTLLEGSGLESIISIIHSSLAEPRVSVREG

Induced myeloid leukemia cell differentiation protein Mcl-1, sequence (Q07820 whole entry): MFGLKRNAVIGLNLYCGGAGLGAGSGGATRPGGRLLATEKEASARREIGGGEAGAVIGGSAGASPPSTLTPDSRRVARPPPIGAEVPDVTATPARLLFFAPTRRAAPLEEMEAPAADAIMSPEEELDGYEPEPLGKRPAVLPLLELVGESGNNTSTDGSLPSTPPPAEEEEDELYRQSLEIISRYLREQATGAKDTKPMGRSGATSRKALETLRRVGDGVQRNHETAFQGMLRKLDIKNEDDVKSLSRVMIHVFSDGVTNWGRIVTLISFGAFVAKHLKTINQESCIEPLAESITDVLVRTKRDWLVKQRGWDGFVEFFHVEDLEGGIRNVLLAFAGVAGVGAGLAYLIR
Cytochrome P450 2D6, sequence (P10635 whole entry): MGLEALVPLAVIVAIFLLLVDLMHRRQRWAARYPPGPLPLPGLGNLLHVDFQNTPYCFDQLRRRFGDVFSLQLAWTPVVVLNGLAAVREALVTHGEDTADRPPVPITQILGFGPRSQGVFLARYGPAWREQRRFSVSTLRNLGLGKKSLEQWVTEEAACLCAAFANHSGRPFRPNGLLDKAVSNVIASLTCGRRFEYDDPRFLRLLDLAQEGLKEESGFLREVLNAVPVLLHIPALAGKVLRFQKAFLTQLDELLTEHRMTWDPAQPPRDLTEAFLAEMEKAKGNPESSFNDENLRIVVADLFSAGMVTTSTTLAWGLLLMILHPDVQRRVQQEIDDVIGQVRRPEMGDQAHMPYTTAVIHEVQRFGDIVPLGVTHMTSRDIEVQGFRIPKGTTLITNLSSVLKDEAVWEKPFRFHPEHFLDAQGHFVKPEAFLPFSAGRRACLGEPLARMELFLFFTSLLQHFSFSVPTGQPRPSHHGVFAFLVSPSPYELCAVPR
Cytochrome P450 2C9, sequence (P11712 whole entry): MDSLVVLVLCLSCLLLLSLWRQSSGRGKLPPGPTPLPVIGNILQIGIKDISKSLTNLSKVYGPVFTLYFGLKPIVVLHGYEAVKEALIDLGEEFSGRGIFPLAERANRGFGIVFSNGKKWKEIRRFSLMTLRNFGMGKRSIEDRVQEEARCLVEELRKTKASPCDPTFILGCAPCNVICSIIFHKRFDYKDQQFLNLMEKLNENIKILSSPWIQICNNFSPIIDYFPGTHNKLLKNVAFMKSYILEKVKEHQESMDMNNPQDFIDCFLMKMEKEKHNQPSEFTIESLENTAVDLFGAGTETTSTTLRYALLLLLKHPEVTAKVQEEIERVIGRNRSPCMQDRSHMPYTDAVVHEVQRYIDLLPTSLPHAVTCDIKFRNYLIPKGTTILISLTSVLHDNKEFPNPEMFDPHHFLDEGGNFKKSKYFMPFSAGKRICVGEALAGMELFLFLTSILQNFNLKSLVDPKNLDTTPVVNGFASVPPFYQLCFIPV
FAD-linked sulfhydryl oxidase ALR, sequence (P55789 whole entry): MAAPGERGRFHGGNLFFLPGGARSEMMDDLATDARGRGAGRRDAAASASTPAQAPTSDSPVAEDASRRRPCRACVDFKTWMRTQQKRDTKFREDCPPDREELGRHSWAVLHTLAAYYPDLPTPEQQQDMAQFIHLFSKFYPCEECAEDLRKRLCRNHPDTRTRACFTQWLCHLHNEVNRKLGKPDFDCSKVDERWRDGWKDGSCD
Cytochrome P450 3A4, sequence (P08684 whole entry): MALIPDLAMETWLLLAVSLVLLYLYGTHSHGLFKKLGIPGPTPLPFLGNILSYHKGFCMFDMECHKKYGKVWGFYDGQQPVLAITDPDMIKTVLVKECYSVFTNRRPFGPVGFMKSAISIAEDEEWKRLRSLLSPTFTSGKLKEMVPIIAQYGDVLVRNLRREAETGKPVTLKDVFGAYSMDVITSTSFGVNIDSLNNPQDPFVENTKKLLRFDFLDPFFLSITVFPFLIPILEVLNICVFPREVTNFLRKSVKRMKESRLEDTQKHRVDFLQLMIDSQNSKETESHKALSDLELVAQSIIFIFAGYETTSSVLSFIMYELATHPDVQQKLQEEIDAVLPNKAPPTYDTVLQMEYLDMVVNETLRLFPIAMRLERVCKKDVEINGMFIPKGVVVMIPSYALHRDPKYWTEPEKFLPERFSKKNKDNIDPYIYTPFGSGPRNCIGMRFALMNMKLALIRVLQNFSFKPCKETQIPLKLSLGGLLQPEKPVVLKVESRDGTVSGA
Cytochrome P450 2C19, sequence (P33261 whole entry): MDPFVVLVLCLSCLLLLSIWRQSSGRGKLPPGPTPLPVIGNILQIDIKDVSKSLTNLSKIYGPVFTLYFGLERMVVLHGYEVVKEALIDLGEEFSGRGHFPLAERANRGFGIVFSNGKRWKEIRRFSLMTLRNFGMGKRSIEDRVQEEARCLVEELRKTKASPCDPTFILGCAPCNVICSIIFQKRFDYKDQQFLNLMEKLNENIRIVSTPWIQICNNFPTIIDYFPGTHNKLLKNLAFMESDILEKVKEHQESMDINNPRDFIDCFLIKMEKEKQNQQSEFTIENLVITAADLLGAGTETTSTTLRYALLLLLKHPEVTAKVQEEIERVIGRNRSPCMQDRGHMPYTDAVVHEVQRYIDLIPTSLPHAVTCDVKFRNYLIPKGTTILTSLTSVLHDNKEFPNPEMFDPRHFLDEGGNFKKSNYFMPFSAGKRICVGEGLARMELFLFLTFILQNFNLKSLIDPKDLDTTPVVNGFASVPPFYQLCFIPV

## CC(C)CC#Cc1ccc2c(c1)O[C@@H](CN(C)S(=O)(=O)c1ccc(F)cc1)[C@@H](C)CN([C@H](C)CO)S2(=O)=O
[1]
  AC50: 19.6 µM (active)
[2]
  AC50: 10.2 µM (active)
[3]
  AC50: 10.1 µM (active)

## COC(=O)Cc1ccc(O)c(N)c1
[4]
  AC50: 21.6 µM (active)

## Cc1nn(C(=O)CN2C(=O)c3ccccc3C2=O)c(C)c1Br
Cytochrome P450 2C19
  AC50: 4.47 µM (inconclusive)
Cytochrome P450 2C9
  AC50: inconclusive
Cytochrome P450 2D6
  AC50: 7.08 µM (inconclusive)

## O=S(=O)(c1cccc2c(Cl)cccc12)N1CCCNCC1
Cytochrome P450 2C9
  AC50: inconclusive
Cytochrome P450 2D6
  AC50: 39.8 µM (inconclusive) and 25.1 µM (inconclusive)
Cytochrome P450 1A2
  AC50: 15.8 µM (inconclusive) and 31.6 µM (inconclusive)

## Cc1ccc(-c2nnn(CC(=O)N(CC3CCCO3)C(C(=O)NC3CCCCC3)c3ccc(F)cc3)n2)o1 (stereo not given)
[1]
  AC50: 0.79 µM (active)
[5]
  AC50: 1.27 µM (active)
[2]
  AC50: 2.56 µM (active)
[3]
  AC50: 2.45 µM (active)

## O=C(Nc1ccc2[nH]c(-c3ccc4[nH]cnc4c3)nc2c1)c1cccs1
Streptococcus
  EC50: 48.4 µM (inconclusive)
[6]
  IC50: 7.21 µM (active)
[7]
  EC50: > 150 µM (not active)
Streptokinase A
  EC50: > 150 µM (not active)

## Cn1c(C(=O)NCCCN2CCN(c3ccccc3F)CC2)cc2c(O)nc3ccccc3c21
[1]
  AC50: 2.82 µM (active)
[5]
  AC50: 24.5 µM (active)
[2]
  AC50: 8.93 µM (active)
[3]
  AC50: 10.3 µM (active)

## COc1ccc(CCNC(=O)CCC(=O)N2CCOc3ccc(Cl)cc32)cc1OC
[8]
  AC50: > 70 µM (inactive)

## Sc1[nH]cnc2c3cc(Cl)ccc3nc1-2
[1]
  AC50: 3.37 µM (active)
[5]
  AC50: 2.35 µM (active)

## Cc1ccc(/C=C2\SC(=S)N(Cc3ccccc3)C2=O)o1
[6]
  IC50: 3.76 µM (not active)

## COc1ccc(C2CC(c3cccc(F)c3)=NN2c2ccc(S(N)(=O)=O)cc2)cc1 (stereo not given)
Vero
  CC50: > 25 µM (active)

## O=C(O)CCc1ccc(-c2ccccc2)n1NC(=O)c1sc2ccccc2c1Cl
[4]
  AC50: 1.72 µM (active)

## CCOc1ccc(NC(=O)N(CCN2CCOCC2)Cc2ccc3c(c2)CCCN3CC)cc1
[6]
  IC50: 0.852 µM (active)

## COc1ccc(C2N(S(=O)(=O)c3ccc(C)cc3)CCN2S(=O)(=O)c2ccc(C)cc2)cc1
[1]
  AC50: 3.05 µM (active)
[5]
  AC50: 6.47 µM (active)
[2]
  AC50: 4.68 µM (active)
[3]
  AC50: 0.715 µM (active)

## CCC(C)[C@H]1CN=C(S)N1CCc1cc(C(F)(F)F)cc(C(F)(F)F)c1 (stereo not given in full)
[8]
  AC50: 21.6 µM (active)

## Oc1cccc2c(O)nccc12
Cytochrome P450 3A4
  AC50: 25.1 µM (inconclusive)
Cytochrome P450 2C9
  AC50: inconclusive
H9c2
  IC50: 31.3 µM (inactive)
Cytochrome P450 1A2
  AC50: 15.8 µM (inconclusive)

## O=C(O)c1ccc(C=C(c2nc3ccccc3s2)c2nc3ccccc3s2)cc1
Vero
  CC50: > 25 µM (active)
[9]
  AC50: 4.53 µM (active)

## Nc1c(C(=O)Nc2ccc(Br)cc2)sc2nc(N3CCOCC3)c3c(c12)CCCC3
Vero
  CC50: > 25 µM (active)

## O=C(Nc1cc(Cl)cc(Cl)c1)C(c1ccccc1)N1CCCCC1 (stereo not given)
[1]
  AC50: 3.35 µM (active)
[5]
  AC50: 7.36 µM (active)
[3]
  AC50: 8.47 µM (active)

## C1=C(c2ccco2)N2CCN=C2S1
[4]
  AC50: 2.33 µM (active)

## C[C@@H]1NC(=O)[C@H](CCCN=C(N)N)NC(=O)c2cc([N+](=O)[O-])cc(I)c2NCCC[C@@H](C(N)=O)NC1=O
[10]
  AC50: 12.3 µM (active)

## O=C(NCC(F)(F)F)[C@@H]1c2ccccc2C(=O)N(CC23CC4CC(CC(C4)C2)C3)[C@H]1c1ccc(CO)cc1
[1]
  AC50: 0.304 µM (active)
[2]
  AC50: 2.43 µM (active)

## COc1cc(COCC(O)CN2CCN(CCN3C(=O)c4cccc5cccc(c45)C3=O)CC2)cc(OC)c1OC (stereo not given)
[10]
  AC50: 3.54 µM (active)
[11]
  EC50: 59.2 µM (active)

## COc1cccc(NC(=O)NNC(=O)CCc2ccc(O)c(O)c2)c1
[4]
  AC50: 3.12 µM (active)

## CCN(CC(=O)NCc1cccs1)S(=O)(=O)c1ccc([N+](=O)[O-])cc1
Fatty acid synthase
  IC50: 17.7 µM (active)

## CN1CC[C@@H]2CN[C@H](c3ccccc3Br)C[C@@H]21
[10]
  AC50: 4.58 µM (active)

## CN(C)CCNC(=O)c1cccc(-c2cnc3c(NC=O)cc(-c4cc(F)c(F)c(F)c4)cn23)c1
[10]
  AC50: 7.21 µM (active)

## C[N+](C)(C)CC(=O)N/N=C/c1c2ccccc2cc2ccccc12
[10]
  AC50: 4.16 µM (active)
